# Data from the supplement of paper PMC10307832.
# How the values were obtained:
# Assay in all cases: relative viability (nuclei count vs DMSO), 5 days (fraction); higher = more cells survive
# NCI-H2170 = test system: NCI-H2170
# Summary of the method: (§1)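 Lung cancer cell lines in 1536-well plates got either a single drug or a fixed anchor-drug dose together with five library-drug doses (not always all listed) in √10 steps, by pin tool, on the day after seeding. Nuclei were counted after 5 days, and relative viability is the treated-to-vehicle ratio of nuclei counts. Values are medians of duplicate plates.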
# NCI-H2405 = test system: NCI-H2405
# Summary of the method: as §1
# ChaGo-K-1 = test system: ChaGo-K-1
# Summary of the method: as §1
# NCI-H3122 = test system: NCI-H3122
# Summary of the method: as §1
# NCI-H1734 = test system: NCI-H1734
# Summary of the method: as §1
# NCI-H1793 = test system: NCI-H1793
# Summary of the method: as §1
# NCI-H2228 = test system: NCI-H2228
# Summary of the method: as §1
# UMC-11 = test system: UMC-11
# Summary of the method: as §1
# NCI-H1395 = test system: NCI-H1395
# Summary of the method: as §1
# RERF-LC-KJ = test system: RERF-LC-KJ
# Summary of the method: as §1
# CAL-12T = test system: CAL-12T
# Summary of the method: as §1
# LC-2-ad = test system: LC-2-ad
# Summary of the method: as §1
# NCI-H1651 = test system: NCI-H1651
# Summary of the method: as §1
# NCI-H1755 = test system: NCI-H1755
# Summary of the method: as §1
# NCI-H460 = test system: NCI-H460
# Summary of the method: as §1
# LU99A = test system: LU99A
# Summary of the method: as §1
# ABC-1 = test system: ABC-1
# Summary of the method: as §1
# LOU-NH91 = test system: LOU-NH91
# Summary of the method: as §1
# HCC-366 = test system: HCC-366
# Summary of the method: as §1
# PC-3 [JPC-3] = test system: PC-3 [JPC-3]
# Summary of the method: as §1
# EPLC-272H = test system: EPLC-272H
# Summary of the method: as §1
# HCC-78 = test system: HCC-78
# Summary of the method: as §1
# NCI-H2087 = test system: NCI-H2087
# Summary of the method: as §1
# NCI-H1944 = test system: NCI-H1944
# Summary of the method: as §1
compound,measurement,setting,value
Clc1ccc(Nc2nnc(Cc3ccncc3)c3ccccc23)cc1 [Vatalanib] + CC(=O)c1c(C)c2cnc(Nc3ccc(N4CCNCC4)cn3)nc2n(C2CCCC2)c1=O [Palbociclib] (partner 0.5 µM),relative viability,NCI-H2170; first compound 0.04 µM,0.415
same,relative viability,NCI-H2170; first compound 0.1265 µM,0.443
same,relative viability,NCI-H2170; first compound 0.4 µM,0.35
same,relative viability,NCI-H2170; first compound 1.265 µM,0.376
same,relative viability,NCI-H2170; first compound 4 µM,0.384
same,relative viability,NCI-H2405; first compound 0.04 µM,0.555
same,relative viability,NCI-H2405; first compound 0.1265 µM,0.496
same,relative viability,NCI-H2405; first compound 0.4 µM,0.54
same,relative viability,NCI-H2405; first compound 4 µM,0.529
same,relative viability,ChaGo-K-1; first compound 0.04 µM,0.998
same,relative viability,ChaGo-K-1; first compound 0.1265 µM,0.885
same,relative viability,ChaGo-K-1; first compound 0.4 µM,0.945
same,relative viability,ChaGo-K-1; first compound 1.265 µM,0.969
same,relative viability,ChaGo-K-1; first compound 4 µM,0.961
same,relative viability,NCI-H3122; first compound 0.04 µM,0.163
same,relative viability,NCI-H3122; first compound 0.1265 µM,0.213
same,relative viability,NCI-H3122; first compound 0.4 µM,0.195
same,relative viability,NCI-H3122; first compound 1.265 µM,0.237
same,relative viability,NCI-H3122; first compound 4 µM,0.182
same,relative viability,NCI-H1734; first compound 0.04 µM,0.338
same,relative viability,NCI-H1734; first compound 0.1265 µM,0.314
same,relative viability,NCI-H1734; first compound 0.4 µM,0.396
same,relative viability,NCI-H1734; first compound 1.265 µM,0.33
same,relative viability,NCI-H1734; first compound 4 µM,0.336
same,relative viability,NCI-H1793; first compound 0.04 µM,0.274
same,relative viability,NCI-H1793; first compound 0.1265 µM,0.262
same,relative viability,NCI-H1793; first compound 0.4 µM,0.324
same,relative viability,NCI-H1793; first compound 1.265 µM,0.285
same,relative viability,NCI-H1793; first compound 4 µM,0.319
same,relative viability,NCI-H2228; first compound 0.04 µM,0.795
same,relative viability,NCI-H2228; first compound 0.1265 µM,0.838
same,relative viability,NCI-H2228; first compound 0.4 µM,0.806
same,relative viability,NCI-H2228; first compound 1.265 µM,0.765
same,relative viability,NCI-H2228; first compound 4 µM,0.612
same,relative viability,UMC-11; first compound 0.04 µM,0.3
same,relative viability,UMC-11; first compound 0.1265 µM,0.316
same,relative viability,UMC-11; first compound 0.4 µM,0.34
same,relative viability,UMC-11; first compound 1.265 µM,0.356
same,relative viability,UMC-11; first compound 4 µM,0.338
same,relative viability,NCI-H1395; first compound 0.04 µM,0.654
same,relative viability,NCI-H1395; first compound 0.1265 µM,0.622
same,relative viability,NCI-H1395; first compound 0.4 µM,0.631
same,relative viability,NCI-H1395; first compound 4 µM,0.568
same,relative viability,RERF-LC-KJ; first compound 0.04 µM,1.08
same,relative viability,RERF-LC-KJ; first compound 0.1265 µM,1.05
same,relative viability,RERF-LC-KJ; first compound 0.4 µM,1.02
same,relative viability,RERF-LC-KJ; first compound 1.265 µM,1.02
same,relative viability,RERF-LC-KJ; first compound 4 µM,0.903
same,relative viability,CAL-12T; first compound 0.04 µM,0.409
same,relative viability,CAL-12T; first compound 0.1265 µM,0.312
same,relative viability,CAL-12T; first compound 0.4 µM,0.384
same,relative viability,CAL-12T; first compound 1.265 µM,0.345
same,relative viability,CAL-12T; first compound 4 µM,0.425
same,relative viability,LC-2-ad; first compound 0.04 µM,0.494
same,relative viability,LC-2-ad; first compound 0.1265 µM,0.448
same,relative viability,LC-2-ad; first compound 0.4 µM,0.544
same,relative viability,LC-2-ad; first compound 1.265 µM,0.452
same,relative viability,LC-2-ad; first compound 4 µM,0.471
same,relative viability,NCI-H1651; first compound 0.04 µM,0.51
same,relative viability,NCI-H1651; first compound 0.1265 µM,0.496
same,relative viability,NCI-H1651; first compound 0.4 µM,0.479
same,relative viability,NCI-H1651; first compound 1.265 µM,0.532
same,relative viability,NCI-H1651; first compound 4 µM,0.513
same,relative viability,NCI-H1755; first compound 0.04 µM,0.473
same,relative viability,NCI-H1755; first compound 0.1265 µM,0.474
same,relative viability,NCI-H1755; first compound 0.4 µM,0.457
same,relative viability,NCI-H1755; first compound 1.265 µM,0.445
same,relative viability,NCI-H1755; first compound 4 µM,0.425
same,relative viability,NCI-H460; first compound 0.04 µM,0.152
same,relative viability,NCI-H460; first compound 0.1265 µM,0.169
same,relative viability,NCI-H460; first compound 0.4 µM,0.211
same,relative viability,NCI-H460; first compound 1.265 µM,0.148
same,relative viability,NCI-H460; first compound 4 µM,0.0922
same,relative viability,LU99A; first compound 0.04 µM,0.418
same,relative viability,LU99A; first compound 0.1265 µM,0.383
same,relative viability,LU99A; first compound 0.4 µM,0.435
same,relative viability,LU99A; first compound 1.265 µM,0.355
same,relative viability,LU99A; first compound 4 µM,0.415
same,relative viability,ABC-1; first compound 0.04 µM,0.662
same,relative viability,ABC-1; first compound 0.1265 µM,0.7
same,relative viability,ABC-1; first compound 0.4 µM,0.892
same,relative viability,ABC-1; first compound 4 µM,0.59
same,relative viability,LOU-NH91; first compound 0.04 µM,0.549
same,relative viability,LOU-NH91; first compound 0.1265 µM,0.483
same,relative viability,LOU-NH91; first compound 0.4 µM,0.542
same,relative viability,LOU-NH91; first compound 1.265 µM,0.457
same,relative viability,LOU-NH91; first compound 4 µM,0.55
same,relative viability,HCC-366; first compound 0.04 µM,0.462
same,relative viability,HCC-366; first compound 0.1265 µM,0.348
same,relative viability,HCC-366; first compound 0.4 µM,0.457
same,relative viability,HCC-366; first compound 1.265 µM,0.391
same,relative viability,HCC-366; first compound 4 µM,0.355
same,relative viability,PC-3 [JPC-3]; first compound 0.04 µM,0.515
same,relative viability,PC-3 [JPC-3]; first compound 0.1265 µM,0.549
same,relative viability,PC-3 [JPC-3]; first compound 0.4 µM,0.573
same,relative viability,PC-3 [JPC-3]; first compound 1.265 µM,0.538
same,relative viability,PC-3 [JPC-3]; first compound 4 µM,0.544
same,relative viability,EPLC-272H; first compound 0.04 µM,0.361
same,relative viability,EPLC-272H; first compound 0.1265 µM,0.344
same,relative viability,EPLC-272H; first compound 0.4 µM,0.372
same,relative viability,EPLC-272H; first compound 1.265 µM,0.315
same,relative viability,EPLC-272H; first compound 4 µM,0.358
same,relative viability,HCC-78; first compound 0.04 µM,0.471
same,relative viability,HCC-78; first compound 0.1265 µM,0.459
same,relative viability,HCC-78; first compound 0.4 µM,0.473
same,relative viability,HCC-78; first compound 1.265 µM,0.422
same,relative viability,HCC-78; first compound 4 µM,0.485
same,relative viability,NCI-H2087; first compound 0.04 µM,0.251
same,relative viability,NCI-H2087; first compound 0.1265 µM,0.209
same,relative viability,NCI-H2087; first compound 0.4 µM,0.205
same,relative viability,NCI-H2087; first compound 1.265 µM,0.268
same,relative viability,NCI-H2087; first compound 4 µM,0.22
same,relative viability,NCI-H1944; first compound 0.04 µM,0.324
same,relative viability,NCI-H1944; first compound 0.1265 µM,0.301
same,relative viability,NCI-H1944; first compound 0.4 µM,0.364
same,relative viability,NCI-H1944; first compound 1.265 µM,0.29
same,relative viability,NCI-H1944; first compound 4 µM,0.319
